Data as given in US10479780B2, “Aminopyrazole derivatives” (Chugai Seiyaku Kabushiki Kaisha, priority 2015, dated 2019).

Experiments:
Format in all cases: biochemical
[1] = target: T1, human Yes1 enzyme (Homo sapiens, UniProt P07947); assay: Yes1 enzyme inhibitory activity (time-resolved fluorometry, biotinylated peptide phosphorylation); conditions: read-out: YES_IC50
T1 construct: made in house
Summary of the method: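 Inhibition was expressed against a compound-free control to give IC50, using TR-FRET read-out (Eu-cryptate anti-pTyr antibody, streptavidin-XL665).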

[2] = target: T2, human Src enzyme (Homo sapiens, UniProt P12931); assay: Src enzyme inhibitory activity (time-resolved fluorometry, biotinylated peptide phosphorylation); conditions: read-out: SRC_IC50
T2 construct: purchased Carna Biosciences, Inc. 08-173
Summary of the method: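 Compounds were tested for blocking tyrosine phosphorylation of a biotinylated peptide substrate by recombinant human Src. Phosphorylated product was quantified by time-resolved fluorometry using europium cryptate and XL665 conjugates, and IC50 was calculated against the compound-free control.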

[3] = target: T3, human Lck enzyme (Homo sapiens, UniProt P06239); assay: Lck enzyme inhibitory activity (time-resolved fluorometry, biotinylated peptide phosphorylation); conditions: read-out: LCK_IC50
T3 construct: purchased Carna Biosciences, Inc. 08-170
Summary of the method: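 Readout pairs a europium cryptate-labelled anti-phosphotyrosine antibody with XL665-streptavidin, measured by time-resolved fluorescence. IC50 derived from percent inhibition against untreated controls.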

T3 sequence (P06239 whole entry): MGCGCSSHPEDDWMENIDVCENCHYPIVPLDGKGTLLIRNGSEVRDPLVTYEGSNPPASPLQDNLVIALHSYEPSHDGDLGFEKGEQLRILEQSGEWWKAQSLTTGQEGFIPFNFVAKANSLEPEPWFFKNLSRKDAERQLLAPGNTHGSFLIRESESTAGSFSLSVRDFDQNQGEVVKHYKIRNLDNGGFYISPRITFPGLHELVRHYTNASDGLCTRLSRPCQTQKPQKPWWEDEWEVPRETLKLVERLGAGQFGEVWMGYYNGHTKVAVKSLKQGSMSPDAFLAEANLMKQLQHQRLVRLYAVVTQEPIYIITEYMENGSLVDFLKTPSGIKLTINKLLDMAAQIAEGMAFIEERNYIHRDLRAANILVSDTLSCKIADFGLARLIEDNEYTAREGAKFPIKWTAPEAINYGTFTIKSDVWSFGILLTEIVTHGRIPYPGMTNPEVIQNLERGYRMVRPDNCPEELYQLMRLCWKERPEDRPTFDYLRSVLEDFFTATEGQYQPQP
T1 sequence (P07947 whole entry): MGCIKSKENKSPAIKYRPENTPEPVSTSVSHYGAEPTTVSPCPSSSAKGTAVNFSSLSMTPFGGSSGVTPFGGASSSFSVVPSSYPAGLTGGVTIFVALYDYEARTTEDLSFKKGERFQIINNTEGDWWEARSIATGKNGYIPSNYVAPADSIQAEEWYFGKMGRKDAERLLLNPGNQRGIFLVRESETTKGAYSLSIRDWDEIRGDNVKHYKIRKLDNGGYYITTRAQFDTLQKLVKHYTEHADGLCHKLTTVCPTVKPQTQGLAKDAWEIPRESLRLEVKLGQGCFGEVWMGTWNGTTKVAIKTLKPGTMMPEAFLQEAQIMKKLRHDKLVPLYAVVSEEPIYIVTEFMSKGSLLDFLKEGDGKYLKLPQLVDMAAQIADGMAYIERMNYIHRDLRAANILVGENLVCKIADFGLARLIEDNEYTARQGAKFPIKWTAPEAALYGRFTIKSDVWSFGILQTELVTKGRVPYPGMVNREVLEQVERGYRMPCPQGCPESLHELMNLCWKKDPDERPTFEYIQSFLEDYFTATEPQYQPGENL
T2 sequence (P12931 whole entry): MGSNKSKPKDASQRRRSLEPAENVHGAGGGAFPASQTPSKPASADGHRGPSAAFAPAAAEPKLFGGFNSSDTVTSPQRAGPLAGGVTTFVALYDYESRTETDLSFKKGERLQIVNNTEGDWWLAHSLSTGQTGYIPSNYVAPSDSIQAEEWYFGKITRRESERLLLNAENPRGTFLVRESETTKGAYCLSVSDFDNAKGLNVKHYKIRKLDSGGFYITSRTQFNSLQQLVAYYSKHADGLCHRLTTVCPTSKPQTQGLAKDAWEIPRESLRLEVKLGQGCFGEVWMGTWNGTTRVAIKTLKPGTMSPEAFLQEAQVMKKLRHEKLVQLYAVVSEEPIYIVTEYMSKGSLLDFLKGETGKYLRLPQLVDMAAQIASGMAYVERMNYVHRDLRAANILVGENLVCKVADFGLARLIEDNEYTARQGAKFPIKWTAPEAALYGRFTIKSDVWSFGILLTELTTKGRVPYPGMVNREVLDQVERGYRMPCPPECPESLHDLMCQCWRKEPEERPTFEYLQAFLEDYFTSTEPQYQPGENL

IC50 [1] [nM]	IC50 [2] [nM]	IC50 [3] [nM]	Structure (SMILES)
2	110	23	Cc1cc2cc(C(=O)c3cnn(-c4cnc(Oc5c(F)cccc5F)cc4C)c3N)[nH]c2cc1NS(=O)(=O)C1CCOCC1 [Example 5-1-269, N-[2-[5-amino-1-[6-(2,6-difluorophenoxy)-4-methylpyridin-3-yl]pyrazole-4-carbonyl]-5-methyl-1H-indol-6-yl]oxane-4-sulfonamide]
4.7	130	28	Cc1cc(Oc2ccccc2F)ccc1-n1ncc(C(=O)c2cc3cc(OCC(F)F)c(N4C(=O)[C@@H]5C[C@@H](NC(=O)OCC6c7ccccc7-c7ccccc76)CN5C4=O)cc3[nH]2)c1N [Example 5-1-270, 9H-fluoren-9-ylmethyl N-[(6R,7aS)-2-[2-[5-amino-1-[4-(2-fluorophenoxy)-2-methylphenyl]pyrazole-4-carbonyl]-5-(2,2-difluoroethoxy)-1H-indol-6-yl]-1,3-dioxo-5,6,7,7a-tetrahydropyrrolo[1,2-c]imidazol-6-yl] carbamate]
0.51	7.2	3.2	Cc1cc(Oc2ccccc2F)ccc1-n1ncc(C(=O)c2cc3cc(OCC(F)F)c(N4C(=O)NC5(CCNCC5)C4=O)cc3[nH]2)c1N [Example 5-1-271, 3-[2-[5-amino-1-[4-(2-fluorophenoxy)-2-methylphenyl]pyrazole-4-carbonyl]-5-(2,2-difluoroethoxy)-1H-indol-6-yl]-1,3,8-triazaspiro [4.5]decane-2,4-dione]
0.65	7.8	4.2	Cc1cc(Oc2ccccc2F)ccc1-n1ncc(C(=O)c2cc3cc(OCC(F)F)c(N4C(=O)NC5(CCN(C6COC6)CC5)C4=O)cc3[nH]2)c1N [Example 5-1-272, 3-[2-[5-amino-1-[4-(2-fluorophenoxy)-2-methylphenyl]pyrazole-4-carbonyl]-5-(2,2-difluoroethoxy)-1H-indol-6-yl]-8-(oxetan-3-yl)-1,3,8-triazaspiro[4.5]decane-2,4-dione]
1.8	33	15	Cc1cc(Oc2ccccc2F)ccc1-n1ncc(C(=O)c2cc3cc(OCC(F)F)c(N4C(=O)[C@@H]5C[C@H](NC(=O)OCc6ccccc6)CN5C4=O)cc3[nH]2)c1N [Example 5-1-273, Benzyl N-[(6S,7aS)-2-[2-[5-amino-1-[4-(2-fluorophenoxy)-2-methylphenyl]pyrazole-4-carbonyl]-5-(2,2-difluoroethoxy)-1H-indol-6-yl]-1,3-dioxo-5,6,7,7a-tetrahydropyrrolo[1,2-c]imidazol-6-yl]carbamate]
2.1	45	17	Cc1cc(Oc2ccccc2F)ccc1-n1ncc(C(=O)c2cc3cc(OCC(F)F)c(N4C(=O)[C@@H]5C[C@H](NC(=O)OCC(C)C)CN5C4=O)cc3[nH]2)c1N [Example 5-1-274, 2-methylpropyl N-[(6S,7aS)-2-[2-[5-amino-1-[4-(2-fluorophenoxy)-2-methylphenyl]pyrazole-4-carbonyl]-5-(2,2-difluoroethoxy)-1H-indol-6-yl]-1,3-dioxo-5,6,7,7a-tetrahydropyrrolo[1,2-c]imidazol-6-yl]carbamate]
0.64	19	7	Cc1cc(Oc2ccccc2F)ccc1-n1ncc(C(=O)c2cc3cc(OCC(F)F)c(N4C(=O)[C@@H]5C[C@H](NS(=O)(=O)Cc6ccccc6)CN5C4=O)cc3[nH]2)c1N [Example 5-1-275, N-[(6S,7aS)-2-[2-[5-amino-1-[4-(2-fluorophenoxy)-2-methylphenyl]pyrazole-4-carbonyl]-5-(2,2-difluoroethoxy)-1H-indol-6-yl]-1,3-dioxo-5,6,7,7a-tetrahydropyrrolo[1,2-c]imidazol-6-yl]-1-phenylmethanesulfonamide]
